Legend:
giant foxtail [1] = test: Test B pre-/postemergence herbicide test; type: in vivo, Setaria faberi
In short: (§1)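 Response was scored visually 13 to 15 days after treatment against untreated greenhouse controls, 0 meaning no effect and 100 complete control. Formulations (solvent mixture plus surfactant) went onto soil after planting, onto foliage of 1- to 4-leaf plants, and onto 2-leaf plants in a flooded paddy set including rice and barnyardgrass.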

large crabgrass [2] = test: Test A pre-/postemergence herbicide test; type: in vivo, Digitaria sanguinalis
In short: (§2)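 Greenhouse injury scoring (0–100, complete control = 100) at approximately ten days follows simultaneous pre- and postemergence application. Soil received a directed spray after seeding; seedlings of 2–10 cm at the one- to two-leaf stage were sprayed to runoff.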

Surinam grass = test: Test B pre-/postemergence herbicide test; type: in vivo, Urochloa decumbens; details: for Surinam Grass plant response rating: postemergence
In short: as §1

[3] = system: small flower umbrella sedge; test: Test B flooded paddy test; type: in vivo, Cyperus difformis; details: 1000 g ai/ha, visual rating, scale 0 to 100 (0 no effect, 100 complete control), 13 to 15 days
In short: (§3)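 Greenhouse test; postemergence application to plants at 1–4 leaves (2–18 cm); paddy species at 2 leaves; evaluated visually vs controls at 13–15 days; scale 0–100 (100 = complete control).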

velvetleaf [4] = test: Test A pre-/postemergence herbicide test; type: in vivo, Abutilon theophrasti
In short: as §2

barnyardgrass [5] = test: Test B flooded paddy test; type: in vivo, Echinochloa crus-galli; details: 1000 g ai/ha, visual rating, scale 0 to 100 (0 no effect, 100 complete control), 13 to 15 days
In short: as §3

morningglory [6] = test: Test A pre-/postemergence herbicide test; type: in vivo, Ipomoea spp.
In short: as §2

barnyardgrass [7] = test: Test B pre-/postemergence herbicide test; type: in vivo, Echinochloa crus-galli
In short: (§4)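 Greenhouse pot assay with simultaneous preemergence (treated seed) and postemergence (2–18 cm seedlings) applications of surfactant-containing, non-phytotoxic solvent formulations. Response scored visually 13–15 days later on a 0–100 scale, 100 meaning complete control.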

wild oat = test: Test B postemergence herbicide test; type: in vivo, Avena fatua
In short: (§5)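 Each value is a visual 0–100 response rating taken against controls 13 to 15 days after treatment in the greenhouse. Plants received formulated chemical postemergence at the 1- to 4-leaf stage or, in flooded paddy, at the 2-leaf stage.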

blackgrass = test: Test B postemergence herbicide test; type: in vivo, Alopecurus myosuroides
In short: as §3

barnyardgrass [8] = test: Test A pre-/postemergence herbicide test; type: in vivo, Echinochloa crus-galli
In short: as §2

corn = test: Test B pre-/postemergence herbicide test; type: in vivo, Zea mays; details: for Corn plant response rating: postemergence
In short: as §1

velvetleaf [9] = test: Test B pre-/postemergence herbicide test; type: in vivo, Abutilon theophrasti
In short: as §1

wheat = test: Test B postemergence herbicide test; type: in vivo, Triticum aestivum; design: key to Wheat plant response rating: 0 = no effect, 100 = complete control
In short: as §5

lambsquarters = test: Test B pre-/postemergence herbicide test; type: in vivo, Chenopodium album
In short: as §1

cocklebur = test: Test B pre-/postemergence herbicide test; type: in vivo, Xanthium strumarium
In short: as §4

giant foxtail [10] = test: Test A pre-/postemergence herbicide test; type: in vivo, Setaria faberi
In short: as §2

pigweed = test: Test B pre-/postemergence herbicide test; type: in vivo, Amaranthus retroflexus
In short: as §1

ducksalad = test: Test B flooded paddy test; type: in vivo, Heteranthera limosa; details: 1000 g ai/ha, visual rating, scale 0 to 100 (0 no effect, 100 complete control), 13 to 15 days
In short: as §3

morningglory [11] = test: Test B pre-/postemergence herbicide test; type: in vivo, Ipomoea coccinea; details: for Morningglory plant response rating: postemergence
In short: as §4

redroot pigweed = test: Test A pre-/postemergence herbicide test; type: in vivo, Amaranthus retroflexus
In short: as §2

large crabgrass [12] = test: Test B pre-/postemergence herbicide test; type: in vivo, Digitaria sanguinalis
In short: as §1

rice = test: Test B flooded paddy test; type: in vivo, Oryza sativa; details: 1000 g ai/ha, visual rating, scale 0 to 100 (0 no effect, 100 complete control), 13 to 15 days
In short: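 Postemergence plants were sprayed with formulated test chemicals at 2 to 18 cm height (1- to 4-leaf stage); paddy species were grown to the 2-leaf stage. After 13 to 15 days in a greenhouse, injury was rated visually against untreated controls on a 0–100 scale (0 = no effect, 100 = complete control).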

[13] = Postemergence, 250 g ai/ha, scale 0 (no effect) to 100 (complete control)
[14] = postemergence, 62 g ai/ha, scale 0 to 100
[15] = Postemergence, 500 g ai/ha, 0 to 100 scale, 0 no effect, 100 complete control
[16] = Postemergence, 2000 g ai/ha, 0 to 100 scale, 0 no effect, 100 complete control
[17] = Preemergence, 500 g ai/ha, visual rating, 0 to 100 scale (0 no effect, 100 complete control)
[18] = Preemergence, 2000 g ai/ha, 0 to 100 scale, 0 no effect, 100 complete control
[19] = 125 g ai/ha, 0 = no effect, 100 = complete control, preemergence
[20] = 500 g ai/ha, visual rating 0-100, 0 no effect, 100 complete control, preemergence
[21] = postemergence, 125 g ai/ha, visual rating, scale 0 (no effect) to 100 (complete control)
[22] = postemergence, 500 g ai/ha, visual rating, scale 0 (no effect) to 100 (complete control)
[23] = Preemergence, 2000 g ai/ha, visual rating, 0 to 100 scale (0 no effect, 100 complete control)
[24] = preemergence, 500 g ai/ha, visual injury, 0 to 100 scale (0 no effect, 100 complete control)
[25] = 125 g ai/ha, visual rating, scale 0 (no effect) to 100 (complete control)
[26] = 500 g ai/ha, visual rating, scale 0 (no effect) to 100 (complete control)

## CN1Cc2c(NC(=O)c3cc(C(C)(C)C)nn3C)cccc2C1=O [Compound 54]
Giant foxtail [1]; [13]
  Foxtail, Giant plant response rating: 0
Giant foxtail [1]; [14]
  Foxtail, Giant plant response rating: 0
Large crabgrass [2]; [15]
  Plant response rating, Crabgrass, Large: 10
Large crabgrass [2]; [16]
  Plant response rating, Crabgrass, Large: 15
Large crabgrass [2]; [17]
  Crabgrass, Large plant response rating: 25
Large crabgrass [2]; [18]
  Crabgrass, Large plant response rating: 35
Surinam grass; 62 g ai/ha, scale 0 to 100
  Surinam Grass plant response rating: 0
[3]
  Sedge, Umbrella plant response rating: 0
Velvetleaf [4]; [16]
  Plant response rating, Velvetleaf: 5
Velvetleaf [4]; [17]
  Velvetleaf plant response rating: 0
Velvetleaf [4]; [18]
  Velvetleaf plant response rating: 0
Barnyardgrass [5]
  Barnyardgrass plant response rating: 0
Morningglory [6]; [15]
  Plant response rating, Morningglory: 0
Morningglory [6]; [16]
  Plant response rating, Morningglory: 10
Morningglory [6]; [17]
  Morningglory plant response rating: 0
Morningglory [6]; [18]
  Morningglory plant response rating: 15
Barnyardgrass [7]; [13]
  Barnyardgrass plant response rating: 0
Barnyardgrass [7]; [14]
  Barnyardgrass plant response rating: 0
Wild oat; [13]
  Oat, Wild plant response rating: 0
Wild oat; [14]
  Oat, Wild plant response rating: 0
blackgrass; [13]
  Blackgrass plant response rating: 0
blackgrass; [14]
  Blackgrass plant response rating: 0
Barnyardgrass [8]; [15]
  Plant response rating, Barnyardgrass: 10
Barnyardgrass [8]; [16]
  Plant response rating, Barnyardgrass: 10
Barnyardgrass [8]; [17]
  Barnyardgrass plant response rating: 5
Barnyardgrass [8]; [18]
  Barnyardgrass plant response rating: 25
corn; 62 g ai/ha, scale 0 to 100
  Corn plant response rating: 10
Velvetleaf [9]; [13]
  Velvetleaf plant response rating: 0
Velvetleaf [9]; [14]
  Velvetleaf plant response rating: 0
wheat; 250 g ai/ha, scale 0 to 100, 0 no effect, 100 complete control, preemergence
  Wheat plant response rating: 0
wheat; [13]
  Wheat plant response rating: 0
wheat; [14]
  Wheat plant response rating: 0
lambsquarters; [13]
  Lambsquarters plant response rating: 40
lambsquarters; [14]
  Lambsquarters plant response rating: 40
cocklebur; [13]
  Cocklebur plant response rating: 10
cocklebur; [14]
  Cocklebur plant response rating: 10
Giant foxtail [10]; [15]
  Plant response rating, Foxtail, Giant: 10
Giant foxtail [10]; [16]
  Plant response rating, Foxtail, Giant: 5
Giant foxtail [10]; [17]
  Foxtail, Giant plant response rating: 0
Giant foxtail [10]; [18]
  Foxtail, Giant plant response rating: 15
pigweed; [13]
  Pigweed plant response rating: 10
pigweed; [14]
  Pigweed plant response rating: 0
ducksalad
  Ducksalad plant response rating: 0
Morningglory [11]; 62 g ai/ha, scale 0 to 100
  Morningglory plant response rating: 10
Redroot pigweed; [15]
  Plant response rating, Pigweed: 20
Redroot pigweed; [16]
  Plant response rating, Pigweed: 20
Redroot pigweed; [17]
  Pigweed plant response rating: 10
Redroot pigweed; [18]
  Pigweed plant response rating: 65
Large crabgrass [12]; [13]
  Crabgrass, Large plant response rating: 0
Large crabgrass [12]; [14]
  Crabgrass, Large plant response rating: 0
rice
  Rice plant response rating: 0

## CC(=O)c1cccc(NC(=O)c2sc(C(C)(C)C)nc2C)c1 [Compound 196]
Giant foxtail [1]; [19]
  Foxtail, Giant plant response rating (0 to 100 scale): 0
Giant foxtail [1]; [20]
  Plant response rating, Foxtail, Giant: 0
Giant foxtail [1]; [21]
  Foxtail, Giant plant response rating: 0
Giant foxtail [1]; [22]
  Foxtail, Giant plant response rating: 0
Large crabgrass [2]; [15]
  Crabgrass, Large plant response rating: 0
Large crabgrass [2]; [16]
  Plant response rating, Crabgrass, Large: 0
Large crabgrass [2]; [23]
  Crabgrass, Large plant response rating: 50
Large crabgrass [2]; [24]
  Crabgrass, Large plant response rating: 25
Surinam grass; [19]
  Surinam Grass plant response rating (0 to 100 scale): 0
Surinam grass; [20]
  Plant response rating, Surinam Grass: 0
Surinam grass; [25]
  Surinam Grass plant response rating: 0
Surinam grass; [26]
  Surinam Grass plant response rating: 40
[3]
  Sedge, Umbrella plant response rating: 30
Velvetleaf [4]; [15]
  Velvetleaf plant response rating: 0
Velvetleaf [4]; [16]
  Plant response rating, Velvetleaf: 0
Velvetleaf [4]; [23]
  Velvetleaf plant response rating: 0
Velvetleaf [4]; [24]
  Velvetleaf plant response rating: 0
Barnyardgrass [5]
  Barnyardgrass plant response rating: 20
Morningglory [6]; [15]
  Morningglory plant response rating: 5
Morningglory [6]; [16]
  Plant response rating, Morningglory: 0
Morningglory [6]; [23]
  Morningglory plant response rating: 10
Morningglory [6]; [24]
  Morningglory plant response rating: 0
Barnyardgrass [7]; [19]
  Barnyardgrass plant response rating (0 to 100 scale): 0
Barnyardgrass [7]; [20]
  Plant response rating, Barnyardgrass: 40
Barnyardgrass [7]; [21]
  Barnyardgrass plant response rating: 0
Barnyardgrass [7]; [22]
  Barnyardgrass plant response rating: 30
Wild oat; [21]
  Oat, Wild plant response rating: 0
Wild oat; [22]
  Oat, Wild plant response rating: 0
blackgrass; [21]
  Blackgrass plant response rating: 0
blackgrass; [22]
  Blackgrass plant response rating: 0
Barnyardgrass [8]; [15]
  Barnyardgrass plant response rating: 0
Barnyardgrass [8]; [16]
  Plant response rating, Barnyardgrass: 30
Barnyardgrass [8]; [23]
  Barnyardgrass plant response rating: 55
Barnyardgrass [8]; [24]
  Barnyardgrass plant response rating: 15
corn; [19]
  Corn plant response rating (0 to 100 scale): 0
corn; [20]
  Plant response rating, Corn: 0
corn; [25]
  Corn plant response rating: 0
corn; [26]
  Corn plant response rating: 10
Velvetleaf [9]; [19]
  Velvetleaf plant response rating (0 to 100 scale): 0
Velvetleaf [9]; [20]
  Plant response rating, Velvetleaf: 20
Velvetleaf [9]; [21]
  Velvetleaf plant response rating: 0
Velvetleaf [9]; [22]
  Velvetleaf plant response rating: 0
wheat; [21]
  Wheat plant response rating: 0
wheat; [22]
  Wheat plant response rating: 0
lambsquarters; [19]
  Lambsquarters plant response rating (0 to 100 scale): 0
lambsquarters; [20]
  Plant response rating, Lambsquarters: 0
lambsquarters; [21]
  Lambsquarters plant response rating: 0
lambsquarters; [22]
  Lambsquarters plant response rating: 30
cocklebur; [19]
  Cocklebur plant response rating (0 to 100 scale): 0
cocklebur; [20]
  Plant response rating, Cocklebur: 0
cocklebur; [21]
  Cocklebur plant response rating: 0
cocklebur; [22]
  Cocklebur plant response rating: 20
Giant foxtail [10]; [15]
  Foxtail, Giant plant response rating: 0
Giant foxtail [10]; [16]
  Plant response rating, Foxtail, Giant: 0
Giant foxtail [10]; [23]
  Foxtail, Giant plant response rating: 20
Giant foxtail [10]; [24]
  Foxtail, Giant plant response rating: 0
pigweed; [19]
  Pigweed plant response rating (0 to 100 scale): 0
pigweed; [20]
  Plant response rating, Pigweed: 0
pigweed; [21]
  Pigweed plant response rating: 10
pigweed; [22]
  Pigweed plant response rating: 30
ducksalad
  Ducksalad plant response rating: 30
Morningglory [11]; [19]
  Morningglory plant response rating (0 to 100 scale): 0
Morningglory [11]; [20]
  Plant response rating, Morningglory: 0
Morningglory [11]; [25]
  Morningglory plant response rating: 0
Morningglory [11]; [26]
  Morningglory plant response rating: 0
Redroot pigweed; [15]
  Pigweed plant response rating: 0
Redroot pigweed; [16]
  Plant response rating, Pigweed: 0
Redroot pigweed; [23]
  Pigweed plant response rating: 15
Redroot pigweed; [24]
  Pigweed plant response rating: 0
Large crabgrass [12]; [19]
  Crabgrass, Large plant response rating (0 to 100 scale): 0
Large crabgrass [12]; [20]
  Plant response rating, Crabgrass, Large: 100
Large crabgrass [12]; [21]
  Crabgrass, Large plant response rating: 30
Large crabgrass [12]; [22]
  Crabgrass, Large plant response rating: 30
rice
  Rice plant response rating: 0
